# Data reported in patent publication US10767151B2, “Device for cell culture” (priority 2008, dated 2020).
# Entries after “also recorded” stand apart in the source; their conditions may differ. Where a SMILES comes first, the peptide text is derived from it. [ ]: non-standard residue; d: D form. The star is where a group is joined. Nle = CCCC[C@H](N)C(=O)O; Cbz = O=C(OCc1ccccc1)*; CH2F = FC*
# Assays:
# Format in all cases: cell-based, mouse
# cortical neurons = assay: Saponin axotomy of cortical neurons in three-chamber device, axonal fragmentation by tubulin labeling (Example 20); settings: for occurrence of axon fragmentation after axotomy: 50 μM applied to the distal segments of axons at the time of axotomy, FIG. 29; for protective effect against axon fragmentation after axotomy: applied 24 h before axotomy (not shown)
# Procedure: The cortices of 14-day mouse embryos are dissected and dissociated as has already been described elsewhere, for example Eur J Neurosci 2001 June; 13(11): 2037-46 William S et al. The neurons are seeded into the somatic chamber (also called compartment) of the circuits at a density of 10^5 cells/cm^2. In this manner, about 4×10^4 neurons are seeded into the somatic chamber. The culture medium consists of DMEM containing 4.5 g/l D-glucose and pyruvate (Invitrogen, Carlsbad, USA), supplemented with 10% of FCS (fetal calf serum; PAA Laboratories, Pasching, Germany) and with 2% of B27 (Invitrogen). The medium is replaced every three days until the beginning of the experiment, and the cultures are conserved in an incubator at 37° C. and 5% CO2. The experiments are carried out after 7 to 8 days of culture in vitro. The calpain inhibitor N-acetyl-Leu-Leu-Nle-CHO (ALLN; Calbiochem), the general caspase inhibitor Z—V-A-D-fluoromethyl ketone (z-VAD; R1D Systems, Minneapolis, USA) and β-nicotinamide adenine dinucleotide hydrate (βNAD; Sigma) are introduced into the culture medium at the beginning of the experiments.
# In order to carry out the axotomy, a flow of 15 μl of medium containing 0.1% of saponin is produced for 2 minutes in the central chamber. In order to avoid the flow of detergent entering the microchannels, an overpressure is maintained in the somatic and axonal chambers throughout the experiment. After 2 minutes of flow, the medium containing the saponin is removed and the central macrochannel is rinsed with culture medium for 5 min. Fresh medium is then added to this channel.
# After a given culture time (optionally according to the moment at which the axotomy experiment is carried out), the neuron cultures are fixed with a 4% paraformaldehyde solution (Sigma) so as to undergo analysis by immunocytochemistry. The circuits are labeled by immunofluorescence with an anti-MAP2 antibody (rabbit IgG, 1:3000; Chemicon, Temecula, USA), and an anti-β-III-tubulin monoclonal antibody (mouse IgG, 1:3000; Sigma) for labeling the cytoskeletal proteins. The circuits are fluorescently labeled with Hoechst 33342 (1:25000; Sigma) for labeling the nucleus. In a separate experiment, the circuits were also labeled by immunofluorescence with an anti-glial fibrillary acidic protein antibody (GFAP, rabbit IgG, 1:5000; DakoCytomation, Glostrup, Denmark) which makes it possible to label the astrocytes. A part of the cultures was subjected to fixing and extraction. This procedure makes it possible to eliminate the tubulin free in the cytoplasm while at the same time fixing the microtubules. These cultures were labeled by immunofluorescence with an anti-a-tubulin monoclonal antibody conjugated to the fluorophore FITC (Sigma) and labeled with phalloidin linked to an Alexa Fluor 555 (Invitrogen) so as to reveal the microtubules and the actin cytoskeleton, respectively. The images were acquired using an inverted epifluorescence microscope (Zeiss, Goettingen, Germany) equipped with a CoolSnap HQ2 camera (Roper Scientific, Ottobrunn, Germany) and using the micro-manager acquisition software (http://www.micro-manager.org).
# The axonal degeneration is estimated by comparing the type of tubulin labeling of fragmented axons or of intact axons. Good survival, in culture, of the cortical neurons is dependent on the initial seeding density, which must be high. Consequently, a large number of cortical axons invade the central and distal chambers. Moreover, since the cortical axons have many branches, the immunohistochemical analysis of the axonal tubulin in the axonal chambers is therefore complex, and the axons are difficult to individualize. The proportion of axon entering the central chamber and emerging in the distal axonal chamber was estimated by calculating a ratio of intensity of overall fluorescence of the b3-tubulin labeling of identical surface areas captured in the central chamber and the distal axonal chamber. […]
# striatal erk kinase = assay: Phosphorylation of striatal erk kinase in corticostriatal network, device D3 (Example 13); settings: after seven days in vitro; cortical depolarization
# Procedure: FIG. 18 represents microfluidic chambers separated by asymmetrical microchannels.
# This experiment was carried out with the device D3.
# The cortical neurons are seeded on the left and the striatal neurons on the right. After seven days in vitro, the cortical axons establish connections with the striatal neurons (β3-tubulin in green, striatal neurons in red (MAP2)).
# corticostriatal network = assay: Synaptic degeneration on a corticostriatal network after cortical axotomy, Vglut-1 presynaptic structures (Example 16); settings: NAD added to striatal compartment at the time of axotomy / pretreated
# Procedure: Photographs a and b of FIG. 21 represent cortical, central and striatal chambers of reconstructed corticostriatal networks in three-chamber microfluidic devices.
# The neurons were labeled on MAP2 (blue), β3-tubulin (green) and Vglut-1 (red).
# Photograph c is representative of cortical-presynaptic structures (Vglut1, red) attached to striatable dendrites (MAP2, blue) after 1, 2, 4 and 6 hours of axotomy or controlled culture or culture pretreated with NAD.
# Photograph d illustrates the quantification of a presynaptic cortical structure attached to MAP2-positive striatal dendrites after cortical axotomy.
# This experiment was carried out with device D4. The experiment, carried out on a corticostriatal network, makes it possible to illustrate that it is possible to objectivize a phenomenon of synaptic degeneration after application of a stress at the cortical level (in this case axotomy) (disappearance of Vglu-1 labeling which is specific for cortical presynaptic structures). […] FIGS. 20 and 21 illustrate the consequences of the axotomy of cortical axons of a corticostriatal network. This axotomy causes the propagation of a signal resulting in rapid degeneration of the presynaptic compartment (FIG. 21) of the corticostriatal junction, and then in degeneration of the cortical axons (FIG. 20).
# cortical axons = assay: Axotomy of the central portion of cortical axons in three-chamber device D4, Wallerian degeneration model (Example 15)
# Procedure: The microfluidic device represented in image 4a of FIG. 20 is similar to that described previously with reference to FIGS. 1C to 1H and comprises three chambers. It is device D4. This makes it possible to apply molecules of interest on the central portion of the axons, for example a detergent (Triton X100, 0.1%), applied for 1 min. […] In this example, although the cortical axons sectioned in their central portion are still intact after one hour of section, they degenerate after 4 h. This constitutes a model of Wallerian degeneration (degeneration of the distal portion of axons). The potential of compounds which protect against this effect can be evaluated by applying them specifically in one or more of the chambers of the device. […] This experiment was carried out with device D4. The experiment, carried out on a corticostriatal network, makes it possible to illustrate that it is possible to objectivize a phenomenon of synaptic degeneration after application of a stress at the cortical level (in this case axotomy) (disappearance of Vglu-1 labeling which is specific for cortical presynaptic structures). […] FIGS. 20 and 21 illustrate the consequences of the axotomy of cortical axons of a corticostriatal network. […]
# Cerebellar neurons = assay: Axonal degeneration of cerebellar neurons after somatic staurosporin, microfluidic device D1 (Example 14); settings: for axon-protecting effect against staurosporin-induced axonal degeneration: compound applied concomitantly to the axons only, staurosporin on the somas
# Procedure: Cerebellar neurons are seeded into microfluidic devices according to the invention and treated with an apoptosis inducer (1 μM staurosporin, STS) at the somatic level. This induces axonal degeneration in the distal chamber (Phi). Apoptosis-blocking compounds (zVAD) or proteases of calpain type (Cal-Inh) are applied specifically to the axons (and not to the somas). The “axon-protecting” effect is quantified on the graph on the right in FIG. 19. Devices D1 are used. Neurons (in this case from the cerebellum) are seeded and their axons pass through the asymmetrical microchannels so as to reach the second chamber (or the 3rd if the device has three compartments). A stress (in this case staurosporin, which is a pro-apoptotic agent) is applied to the soma of the neurons. […] The effect of “axon-protecting” molecules can thus be evaluated. FIG. 19 illustrates the start of axonal degeneration induced by the application of a pro-apoptotic stress applied to the somato-dendritic compartment of neurons. This causes the propagation of a destructive signal in the axon, which then degenerates early, before the cell soma.
molecule,measurement,setting,value
"CCCC[C@@H](C=O)NC(=O)[C@H](CC(C)C)NC(=O)[C@H](CC(C)C)NC(C)=O [ALLN, N-acetyl-Leu-Leu-Nle-CHO] (Ac-Leu-Leu-[Nle]-aldehyde)",occurrence of axon fragmentation after axotomy,cortical neurons,does not delay the occurrence of axon fragmentation
same,protective effect against axon fragmentation after axotomy,cortical neurons,absence of protective effect
[Cl-].[K+] [KCl],phosphorylation of the striatal erk kinase,striatal erk kinase,triggers phosphorylation
C[C@]12N[C@H](Cc3ccccc31)c1ccccc12 [MK801],phosphorylation of the striatal erk kinase,striatal erk kinase,inhibition
"NC(=O)c1ccc[n+]([C@@H]2O[C@H](COP(=O)([O-])OP(=O)(O)OC[C@H]3O[C@@H](n4cnc5c(N)ncnc54)[C@H](O)[C@@H]3O)[C@@H](O)[C@H]2O)c1 [NAD, β-nicotinamide adenine dinucleotide hydrate]",presynaptic degeneration of the corticostriatal junction (Vglut-1),"corticostriatal network; FIG. 21, hydrate",delays presynaptic degeneration
same,presynaptic degeneration of the corticostriatal junction (Vglut-1),"corticostriatal network; FIG. 21, listed as NAD+, hydrate",Delays Deconnection
same,degeneration of transected cortical axons (axon-protecting effect),"cortical axons; after axotomy, NAD added to the striatal compartment at the time of axotomy, FIG. 20, hydrate",axon-protecting effect; also recorded: delays
same,axon-protecting effect against staurosporin-induced axonal degeneration,Cerebellar neurons,delays this axonal degeneration
same,degeneration of cut axons,"cortical neurons; 5 mM pretreatment 24 h before axotomy, 8 h after axotomy (all control axons fragmented)",do not exhibit any sign of degeneration
same,persistence of axon protection,"cortical neurons; 5 mM pretreatment 24 h before axotomy, 24 hours after axotomy",protection disappears
same,signs of axonal degeneration after axotomy,cortical neurons; neurons pretreated 24 h before axotomy with 5 mM,delayed
CN[C@@H]1C[C@H]2O[C@@](C)([C@@H]1OC)n1c3ccccc3c3c4c(c5c6ccccc6n2c5c31)C(=O)NC4 [staurosporin],axon degeneration induced by stress applied to the soma,"Cerebellar neurons; 1 μM staurosporin at the somatic level, axons in distal chamber, in 24 h",induces axon degeneration
COC(=O)C[C@H](NC(=O)[C@H](C)NC(=O)[C@@H](NC(=O)OCc1ccccc1)C(C)C)C(=O)CF [zVAD] (Cbz-Val-Ala-Asp(OMe)-CH2F),axon-protecting effect against staurosporin-induced axonal degeneration,Cerebellar neurons,prevents this degeneration; also recorded: delays this axonal degeneration
same,occurrence of axon fragmentation after axotomy,cortical neurons,does not delay the occurrence of axon fragmentation
same,protective effect against axon fragmentation after axotomy,cortical neurons,absence of protective effect
Triton X100,section of axons by detergent,cortical axons; Triton X100 0.1% applied for 1 min on central portion of the axons,immediate section of the central portion of the axons
saponin,destruction of axon segments by detergent flow,"cortical neurons; 0.1% saponin, flow for 2 minutes in the central compartment",immediate destruction of the axon segments contained in the central compartment
